# According to paper PMC2652713, “Molecular Blocking of CD23 Supports Its Role in the Pathogenesis of Arthritis” (PLoS ONE, 2009):
# Tests used:
# [1] = system: CD23
# [2] = system: peritoneal macrophages of AIA rats; assay: Ex vivo cytokine release from peritoneal macrophages of treated AIA rats, ELISA; assay type: in vivo, rat, Female Lewis; settings: cells collected 50 days post-immunization, 48 h culture, 4 rats
# Protocol: AIA rats were treated either after (AIA+p30A) or before (p30A+AIA) the onset of symptoms. Treatment consisted of p30A (10 mg/rat) or hydrocortisone (HC, 30 mg/rat). Rat peritoneal macrophages were collected following 50 days post-immunization, washed and re-incubated in culture medium alone. Cell supernatants were collected 48 h later and cytokine levels were quantified. Macrophages from healthy rats were also incubated in similar conditions. Values are mean±s.d. of cells from 4 different rats.
# Adjuvant arthritis was induced in six week-old animals by subcutaneous injection at the base of the tail of 300 µl containing 1.8 mg of inactivated Mycobacterium butyricum (Difco Laboratories, Detroit, MI) diluted in emulsion of 8 ml Vaseline, 1 ml polysorbate 80, and 1 ml PBS (Phosphate Buffer Saline, Eurobio). Rats were boosted one week later following the same procedure. Observation was conducted for up to 50 days following immunization for clinical signs of arthritis. Rats were divided in different groups of 8 rats. Groups were treated with five injections (every 2 days) of either p30A (10, 50 or 100 mg in a PBS solution), pCtl, hydrocortisone (Sigma Aldrich) or PBS solution. Injections were initiated two days after the appearance of first arthritic symptoms (therapeutic) or on the first day of immunization (preventive). […] Rats were sacrificed 50 days after AIA induction. Peritoneal macrophages were collected and incubated in culture medium alone for 48 h. Quantification of TNF-α and IL-1β in rat cell supernatants was performed using appropriate ELISA kits and according to manufacturer's recommendations (Biosource, Montrouge, France).
# [3] = system: rat peritoneal macrophages; assay: NO generation by IgE/DNP-activated rat peritoneal macrophages; assay type: cell-based
# Protocol: Figure 6 Inhibition of in vitro and in vivo inflammatory responses in rats by p30A peptide. (A) Rat peritoneal macrophages were activated via CD23 antigens with/without p30A, L-NIL or pCtl. Cell supernatants were collected 48 h later and nitrite levels were quantified. Values are mean±s.d. of cells from 3 different rats. (B) Cumulative clinical score/rat obtained following 50 days post-immunization in all groups. AIA rats were treated either after or before (d0) the onset of symptoms. Treatment consisted of p30A, hydrocortisone (HC, 30 mg/rat)) or pCtl (100 mg/rat). Shown are means of cumulative score/rat±s.d. from 5 (HC) or 8 rats (other conditions). (C) Evolution of arthritis severity scores of adjuvant-induced arthritis (AIA) in rats treated with intracutaneous p30A or pCtl (100 mg/rat) or hydrocortisone (after the onset of clinical signs as illustrated by arrows (means from 8 rats, s.e.m.<20%). (D) Histopathologic analysis confirm p30A ability to decrease all components of AIA lesions: pannus formation and inflammation of the synovium (P), deformity of joint and bones (asterix), bone remodeling and destruction (arrowhead), bone neoformation (arrows) and cartilage destruction.
# Culture supernatants (72 h) were assayed for the stable end-product of NO, NO2 ^− using the Griess reaction modified as detailed elsewhere. […]
# [4] = Weight and intestinal bleeding in AIA rats; assay type: in vivo, rat, Female Lewis; settings: 50 days, data not shown
# Protocol: Adjuvant arthritis was induced in six week-old animals by subcutaneous injection at the base of the tail of 300 µl containing 1.8 mg of inactivated Mycobacterium butyricum (Difco Laboratories, Detroit, MI) diluted in emulsion of 8 ml Vaseline, 1 ml polysorbate 80, and 1 ml PBS (Phosphate Buffer Saline, Eurobio). Rats were boosted one week later following the same procedure. Observation was conducted for up to 50 days following immunization for clinical signs of arthritis. Rats were divided in different groups of 8 rats. Groups were treated with five injections (every 2 days) of either p30A (10, 50 or 100 mg in a PBS solution), pCtl, hydrocortisone (Sigma Aldrich) or PBS solution. Injections were initiated two days after the appearance of first arthritic symptoms (therapeutic) or on the first day of immunization (preventive). […] The severity of AIA in each paw was quantified daily using an ordinal clinical score measurement from 0 to 4 as follows: no signs of inflammation ( = 0); swelling alone (>2 fold paw diameter) ( = 1) or swelling/immobility ( = 2) of one paw; swelling ( = 3) or swelling/immobility ( = 4) of two paws. Weight evolution of rats was measured daily. […] Quantification of TNF-α and IL-1β in rat cell supernatants was performed using appropriate ELISA kits and according to manufacturer's recommendations (Biosource, Montrouge, France).
# [5] = system: rat CD23+ macrophages; assay: IgE-mediated activation of rat CD23+ macrophages; assay type: cell-based
# Protocol: Peptides were added one hour prior to cell activation.
# [6] = system: human CD23; assay: Flow cytometry, inhibition of IgE/anti-IgE-FITC binding to human CD23+ macrophages; settings: p30A 10 µg/ml pre-incubation, IgE 10 µg/ml, anti-IgE-FITC 1 µg/ml
# Protocol: Figure 1 Specific blockade of CD23 reactivity by p30A. Flow cytometry analysis showing the inhibition of (A) anti-CD23-FITC (20 µg/ml) or (B) IgE (10 µg/ml)/anti-IgE-FITC (1 µg/ml) binding to CD23^+ human PBL-derived macrophages (red lines) or following their pre-incubation with p30A peptides (10 µg/ml) (blue lines). (C) CD23 western blot was performed on total protein extract from à CD23^+ B-cell line. The detection with CD23-McAb followed the pre-incubation of the blot with or without p30A (10 µg/ml). Similar protein quantity (50 µg) was used for each western blot condition.
# [7] = treatment before onset of symptoms (p30A+AIA, 10 mg/rat)
substance,measurement,setting,value
FHENWPS [p30A],side agonistic effect,[1],absence of side agonistic effect
same,"TNFα release ex vivo, therapeutic","[2]; treatment after onset of symptoms (AIA+p30A, 10 mg/rat)",dramatically reduced both IL-1β and TNFα levels
same,"IL-1β release ex vivo, therapeutic","[2]; treatment after onset of symptoms (AIA+p30A, 10 mg/rat; HC 30 mg/rat)",dramatically reduced both IL-1β and TNFα levels
same,"IL-1β release ex vivo, preventive",[2]; [7],dramatically reduced both IL-1β and TNFα levels
same,"TNFα release ex vivo, preventive",[2]; [7],dramatically reduced both IL-1β and TNFα levels
same,reversal of IgE/DNP activation,[3]; rat macrophages ex-vivo,able to reverse the IgE/DNP activation of rat macrophages ex-vivo
same,CD23-mediated induction of NO generation,"[3]; rat peritoneal macrophages, IgE/DNP, peptide 1 h prior, supernatants at 48 h, 3 rats",significant decrease in CD23-mediated induction of NO generation
same,intestinal bleeding,[4],neither intestinal bleeding was observed
same,weight loss,[4],no weight loss
same,IgE-mediated activation of rat CD23+ macrophages,[5],decreased IgE-mediated activation of both human and rat CD23^+ macrophages
same,block of IgE/anti-IgE-FITC binding,[6],"block, on the one hand, the binding of IgE/anti-IgE-FITC to human CD23^+ macrophages"
